Laboratory results as given in ChEMBL document CHEMBL4507295 (2021).

How the values were obtained:
[1] = system: Phosphatidylinositol 4,5-bisphosphate 3-kinase catalytic subunit alpha isoform (Homo sapiens), P42336 [H1047Y]; details: Compound concentration 1000.0 nM
[2] = molecular target: Serine/threonine-protein kinase STK11 (Homo sapiens) (UniProt Q15831); details: Compound concentration 1000.0 nM
[3] = molecular target: Tyrosine-protein kinase Fes/Fps (Homo sapiens) (UniProt P07332); details: Compound concentration 1000.0 nM
[4] = molecular target: GABA-A receptor; anion channel (Rattus norvegicus) (UniProt O09028+P15431+P18506+P18508+P19969+P20236+P23574+P23576+P28471+P28473+P30191+P62813+P63079+P63138+Q91ZM7+Q9ES14); details: Compound concentration 10.0 uM
[5] = molecular target: MAP kinase-interacting serine/threonine-protein kinase 1 (Homo sapiens) (UniProt Q9BUB5); details: Compound concentration 1000.0 nM
[6] = molecular target: Rho-associated protein kinase 1 (Homo sapiens) (UniProt Q13464); details: Compound concentration 1000.0 nM
[7] = molecular target: Sodium-dependent dopamine transporter (Homo sapiens) (UniProt Q01959); details: Compound concentration 10.0 uM
[8] = molecular target: Mitogen-activated protein kinase 13 (Homo sapiens) (UniProt O15264); details: Compound concentration 1000.0 nM
[9] = molecular target: Serine/threonine-protein kinase PLK4 (Homo sapiens) (UniProt O00444); details: Compound concentration 1000.0 nM
[10] = molecular target: T1, 5-hydroxytryptamine receptor 2C (Homo sapiens) (UniProt P28335); details: Compound concentration 10.0 uM
T1 sequence (whole entry): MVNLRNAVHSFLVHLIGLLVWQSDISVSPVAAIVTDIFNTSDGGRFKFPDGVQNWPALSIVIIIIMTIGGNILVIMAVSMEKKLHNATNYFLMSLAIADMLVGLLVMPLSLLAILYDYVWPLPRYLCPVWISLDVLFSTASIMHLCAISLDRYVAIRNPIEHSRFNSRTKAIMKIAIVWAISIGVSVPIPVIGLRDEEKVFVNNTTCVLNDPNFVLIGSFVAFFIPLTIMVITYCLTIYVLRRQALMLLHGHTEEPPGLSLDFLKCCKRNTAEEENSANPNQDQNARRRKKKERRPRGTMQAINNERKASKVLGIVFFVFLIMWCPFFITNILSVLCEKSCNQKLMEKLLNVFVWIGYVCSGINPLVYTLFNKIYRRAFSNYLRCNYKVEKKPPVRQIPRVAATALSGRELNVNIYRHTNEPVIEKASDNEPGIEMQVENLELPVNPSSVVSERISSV

[11] = molecular target: Serine/threonine-protein kinase 33 (Homo sapiens) (UniProt Q9BYT3); details: Compound concentration 1000.0 nM
[12] = molecular target: ALK tyrosine kinase receptor (Homo sapiens) (UniProt Q9UM73); details: Compound concentration 1000.0 nM
[13] = molecular target: Serine/threonine-protein kinase SIK3 (Homo sapiens) (UniProt Q9Y2K2); details: Compound concentration 1000.0 nM
[14] = system: Tyrosine-protein kinase ABL1 (Homo sapiens), P00519 [F317I]; details: Compound concentration 1000.0 nM
[15] = molecular target: Casein kinase II subunit alpha (Homo sapiens) (UniProt P68400); details: Compound concentration 1000.0 nM
[16] = molecular target: Serine/threonine-protein kinase Nek10 (Homo sapiens) (UniProt Q6ZWH5); details: Compound concentration 1000.0 nM
[17] = system: Epidermal growth factor receptor (Homo sapiens), P00533 [UNDEFINED MUTATION]; details: Compound concentration 1000.0 nM
[18] = molecular target: Tyrosine-protein kinase BTK (Homo sapiens) (UniProt Q06187); details: Compound concentration 1000.0 nM
[19] = molecular target: SRSF protein kinase 3 (Homo sapiens) (UniProt Q9UPE1); details: Compound concentration 1000.0 nM
[20] = molecular target: Tyrosine-protein kinase Srms (Homo sapiens) (UniProt Q9H3Y6); details: Compound concentration 1000.0 nM
[21] = molecular target: MAP kinase-interacting serine/threonine-protein kinase 2 (Homo sapiens) (UniProt Q9HBH9); details: Compound concentration 1000.0 nM
[22] = molecular target: Calcium/calmodulin-dependent protein kinase kinase 1 (Homo sapiens) (UniProt Q8N5S9); details: Compound concentration 1000.0 nM
[23] = molecular target: Serine/threonine-protein kinase pim-3 (Homo sapiens) (UniProt Q86V86); details: Compound concentration 1000.0 nM
[24] = molecular target: Serine/threonine-protein kinase haspin (Homo sapiens) (UniProt Q8TF76); details: Compound concentration 1000.0 nM
[25] = molecular target: TRAF2 and NCK-interacting protein kinase (Homo sapiens) (UniProt Q9UKE5); details: Compound concentration 1000.0 nM
[26] = molecular target: Serine/threonine-protein kinase Nek4 (Homo sapiens) (UniProt P51957); details: Compound concentration 1000.0 nM
[27] = molecular target: Serine/threonine-protein kinase Sgk1 (Homo sapiens) (UniProt O00141); details: Compound concentration 1000.0 nM
[28] = molecular target: Ephrin type-B receptor 3 (Homo sapiens) (UniProt P54753); details: Compound concentration 1000.0 nM
[29] = molecular target: Homeodomain-interacting protein kinase 4 (Homo sapiens) (UniProt Q8NE63); details: Compound concentration 1000.0 nM
[30] = molecular target: Serine/threonine-protein kinase ULK1 (Homo sapiens) (UniProt O75385); details: Compound concentration 1000.0 nM
[31] = molecular target: Ephrin type-B receptor 4 (Homo sapiens) (UniProt P54760); details: Compound concentration 1000.0 nM
[32] = molecular target: Dual serine/threonine and tyrosine protein kinase (Homo sapiens) (UniProt Q6XUX3); details: Compound concentration 1000.0 nM
[33] = molecular target: Mitogen-activated protein kinase kinase kinase 15 (Homo sapiens) (UniProt Q6ZN16); details: Compound concentration 1000.0 nM
[34] = molecular target: Citron Rho-interacting kinase (Homo sapiens) (UniProt O14578); details: Compound concentration 1000.0 nM
[35] = molecular target: Ribosomal protein S6 kinase alpha-3 (Homo sapiens) (UniProt P51812); details: Compound concentration 1000.0 nM
[36] = molecular target: High affinity nerve growth factor receptor (Homo sapiens) (UniProt P04629); details: Compound concentration 1000.0 nM
[37] = molecular target: Mitogen-activated protein kinase kinase kinase kinase 1 (Homo sapiens) (UniProt Q92918); details: Compound concentration 1000.0 nM

Tyrosine-protein kinase Srms (Homo sapiens), sequence (Q9H3Y6 whole entry): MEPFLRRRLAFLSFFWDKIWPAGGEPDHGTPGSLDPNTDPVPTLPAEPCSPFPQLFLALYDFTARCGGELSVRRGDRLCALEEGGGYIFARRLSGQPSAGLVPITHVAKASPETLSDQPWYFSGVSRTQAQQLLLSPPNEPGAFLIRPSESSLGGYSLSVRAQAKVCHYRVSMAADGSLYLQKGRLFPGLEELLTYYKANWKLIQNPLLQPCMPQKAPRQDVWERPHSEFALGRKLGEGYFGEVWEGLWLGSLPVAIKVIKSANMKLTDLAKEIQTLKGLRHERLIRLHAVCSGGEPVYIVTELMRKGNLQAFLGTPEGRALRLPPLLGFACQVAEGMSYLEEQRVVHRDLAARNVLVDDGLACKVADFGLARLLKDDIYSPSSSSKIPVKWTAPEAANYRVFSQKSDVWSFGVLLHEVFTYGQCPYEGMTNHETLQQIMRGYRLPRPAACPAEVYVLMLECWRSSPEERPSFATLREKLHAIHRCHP
Ephrin type-B receptor 3 (Homo sapiens), sequence (P54753 whole entry): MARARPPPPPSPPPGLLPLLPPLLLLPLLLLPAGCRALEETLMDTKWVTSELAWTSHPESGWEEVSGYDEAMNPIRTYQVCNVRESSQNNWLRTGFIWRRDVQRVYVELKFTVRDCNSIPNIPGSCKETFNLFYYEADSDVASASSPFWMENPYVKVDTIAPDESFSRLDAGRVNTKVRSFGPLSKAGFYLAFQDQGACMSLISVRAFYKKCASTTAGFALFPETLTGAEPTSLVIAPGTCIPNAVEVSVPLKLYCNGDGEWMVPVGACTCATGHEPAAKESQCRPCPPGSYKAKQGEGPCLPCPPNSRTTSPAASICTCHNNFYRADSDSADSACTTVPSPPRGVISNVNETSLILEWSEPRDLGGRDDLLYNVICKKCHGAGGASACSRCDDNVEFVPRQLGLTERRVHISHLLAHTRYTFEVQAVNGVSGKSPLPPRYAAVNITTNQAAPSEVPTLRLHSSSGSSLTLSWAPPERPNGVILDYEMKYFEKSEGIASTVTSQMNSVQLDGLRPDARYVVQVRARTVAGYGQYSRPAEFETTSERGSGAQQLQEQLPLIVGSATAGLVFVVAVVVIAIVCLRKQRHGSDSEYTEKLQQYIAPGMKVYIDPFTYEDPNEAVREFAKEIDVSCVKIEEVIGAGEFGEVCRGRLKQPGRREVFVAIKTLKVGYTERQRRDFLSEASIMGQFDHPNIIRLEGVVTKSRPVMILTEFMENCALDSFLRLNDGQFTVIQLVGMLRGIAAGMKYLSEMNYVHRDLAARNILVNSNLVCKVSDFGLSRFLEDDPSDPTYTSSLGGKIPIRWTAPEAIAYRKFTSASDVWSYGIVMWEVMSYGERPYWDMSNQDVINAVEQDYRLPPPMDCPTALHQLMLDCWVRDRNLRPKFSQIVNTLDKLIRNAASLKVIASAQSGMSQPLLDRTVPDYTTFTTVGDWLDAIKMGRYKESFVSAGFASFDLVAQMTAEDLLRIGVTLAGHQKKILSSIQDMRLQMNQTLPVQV
Serine/threonine-protein kinase SIK3 (Homo sapiens), sequence (Q9Y2K2 whole entry, looked up): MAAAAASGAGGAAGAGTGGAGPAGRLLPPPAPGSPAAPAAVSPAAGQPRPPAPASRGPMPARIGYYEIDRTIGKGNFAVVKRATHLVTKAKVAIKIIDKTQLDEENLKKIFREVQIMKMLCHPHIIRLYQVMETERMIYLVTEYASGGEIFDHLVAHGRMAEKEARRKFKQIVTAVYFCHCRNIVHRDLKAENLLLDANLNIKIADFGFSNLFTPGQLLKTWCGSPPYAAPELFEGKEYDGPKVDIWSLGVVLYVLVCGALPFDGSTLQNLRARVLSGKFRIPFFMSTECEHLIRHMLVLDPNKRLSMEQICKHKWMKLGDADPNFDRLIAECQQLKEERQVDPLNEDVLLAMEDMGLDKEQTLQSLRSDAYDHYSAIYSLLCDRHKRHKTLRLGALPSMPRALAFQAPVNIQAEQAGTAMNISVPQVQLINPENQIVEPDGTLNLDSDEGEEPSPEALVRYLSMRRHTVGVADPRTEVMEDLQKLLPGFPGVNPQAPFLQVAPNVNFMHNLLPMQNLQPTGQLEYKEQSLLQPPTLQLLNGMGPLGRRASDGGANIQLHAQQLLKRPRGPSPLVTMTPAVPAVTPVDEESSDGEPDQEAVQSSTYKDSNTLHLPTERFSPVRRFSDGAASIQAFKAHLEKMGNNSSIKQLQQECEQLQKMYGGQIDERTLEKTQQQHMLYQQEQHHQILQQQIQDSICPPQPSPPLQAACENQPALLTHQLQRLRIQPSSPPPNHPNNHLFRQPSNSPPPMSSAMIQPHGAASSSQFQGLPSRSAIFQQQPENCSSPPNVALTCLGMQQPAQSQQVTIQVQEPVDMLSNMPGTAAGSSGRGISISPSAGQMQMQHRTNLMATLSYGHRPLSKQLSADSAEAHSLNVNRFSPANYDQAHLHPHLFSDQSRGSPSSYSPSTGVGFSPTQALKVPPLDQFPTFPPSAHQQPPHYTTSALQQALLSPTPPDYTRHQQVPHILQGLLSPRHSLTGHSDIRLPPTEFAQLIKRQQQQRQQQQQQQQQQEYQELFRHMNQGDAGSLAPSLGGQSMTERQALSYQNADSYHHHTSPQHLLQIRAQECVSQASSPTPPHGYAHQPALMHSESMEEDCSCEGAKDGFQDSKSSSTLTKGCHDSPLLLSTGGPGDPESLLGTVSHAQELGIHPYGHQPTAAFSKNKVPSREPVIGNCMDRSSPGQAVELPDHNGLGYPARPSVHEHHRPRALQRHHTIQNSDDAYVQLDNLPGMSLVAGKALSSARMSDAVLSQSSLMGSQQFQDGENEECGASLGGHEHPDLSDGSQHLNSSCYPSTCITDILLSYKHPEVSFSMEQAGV
Rho-associated protein kinase 1 (Homo sapiens), sequence (Q13464 2-1354 limits assumed): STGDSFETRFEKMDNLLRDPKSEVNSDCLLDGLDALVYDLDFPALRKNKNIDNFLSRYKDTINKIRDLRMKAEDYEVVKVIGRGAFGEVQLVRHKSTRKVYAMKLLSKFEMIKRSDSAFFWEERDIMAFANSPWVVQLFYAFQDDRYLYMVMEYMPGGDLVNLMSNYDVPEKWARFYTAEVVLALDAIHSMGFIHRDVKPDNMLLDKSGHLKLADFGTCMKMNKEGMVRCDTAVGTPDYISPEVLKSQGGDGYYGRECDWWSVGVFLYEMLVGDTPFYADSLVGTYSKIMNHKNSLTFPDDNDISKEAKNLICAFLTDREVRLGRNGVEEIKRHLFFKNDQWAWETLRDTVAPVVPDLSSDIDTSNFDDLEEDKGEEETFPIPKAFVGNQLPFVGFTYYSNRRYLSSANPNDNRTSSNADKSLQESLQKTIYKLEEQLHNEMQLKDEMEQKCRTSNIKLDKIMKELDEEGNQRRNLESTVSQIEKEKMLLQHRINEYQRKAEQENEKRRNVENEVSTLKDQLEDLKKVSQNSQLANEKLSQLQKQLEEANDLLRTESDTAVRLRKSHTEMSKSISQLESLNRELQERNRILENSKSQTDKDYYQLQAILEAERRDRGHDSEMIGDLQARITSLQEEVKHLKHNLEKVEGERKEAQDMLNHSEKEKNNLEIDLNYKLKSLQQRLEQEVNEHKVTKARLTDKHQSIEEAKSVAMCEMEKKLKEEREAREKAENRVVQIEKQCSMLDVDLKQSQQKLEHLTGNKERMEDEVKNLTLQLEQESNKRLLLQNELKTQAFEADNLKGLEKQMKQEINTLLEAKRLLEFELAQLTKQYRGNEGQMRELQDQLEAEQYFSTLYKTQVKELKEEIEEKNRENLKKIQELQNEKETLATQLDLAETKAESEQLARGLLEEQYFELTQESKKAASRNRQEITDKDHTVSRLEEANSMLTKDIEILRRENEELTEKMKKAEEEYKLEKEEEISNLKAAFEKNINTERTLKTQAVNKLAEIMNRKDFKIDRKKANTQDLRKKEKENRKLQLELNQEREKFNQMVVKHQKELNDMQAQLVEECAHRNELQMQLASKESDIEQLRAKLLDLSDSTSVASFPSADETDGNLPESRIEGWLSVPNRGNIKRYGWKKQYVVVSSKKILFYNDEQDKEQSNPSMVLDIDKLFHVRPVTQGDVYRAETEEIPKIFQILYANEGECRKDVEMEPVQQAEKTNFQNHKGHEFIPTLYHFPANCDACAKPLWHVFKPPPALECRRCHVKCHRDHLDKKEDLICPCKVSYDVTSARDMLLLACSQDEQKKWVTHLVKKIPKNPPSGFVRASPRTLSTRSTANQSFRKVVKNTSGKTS
Serine/threonine-protein kinase Sgk1 (Homo sapiens), sequence (O00141 whole entry): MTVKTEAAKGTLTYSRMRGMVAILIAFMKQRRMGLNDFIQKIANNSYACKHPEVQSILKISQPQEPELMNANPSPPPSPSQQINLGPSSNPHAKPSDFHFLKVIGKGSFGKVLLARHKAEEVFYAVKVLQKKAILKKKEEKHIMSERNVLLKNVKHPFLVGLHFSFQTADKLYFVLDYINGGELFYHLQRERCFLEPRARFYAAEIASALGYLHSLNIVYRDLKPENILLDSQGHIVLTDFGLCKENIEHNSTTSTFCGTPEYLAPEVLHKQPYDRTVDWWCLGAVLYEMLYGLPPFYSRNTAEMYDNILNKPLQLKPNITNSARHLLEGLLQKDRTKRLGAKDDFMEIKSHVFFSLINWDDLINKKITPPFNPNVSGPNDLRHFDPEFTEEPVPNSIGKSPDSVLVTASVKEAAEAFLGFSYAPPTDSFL
Serine/threonine-protein kinase 33 (Homo sapiens), sequence (Q9BYT3 whole entry, looked up): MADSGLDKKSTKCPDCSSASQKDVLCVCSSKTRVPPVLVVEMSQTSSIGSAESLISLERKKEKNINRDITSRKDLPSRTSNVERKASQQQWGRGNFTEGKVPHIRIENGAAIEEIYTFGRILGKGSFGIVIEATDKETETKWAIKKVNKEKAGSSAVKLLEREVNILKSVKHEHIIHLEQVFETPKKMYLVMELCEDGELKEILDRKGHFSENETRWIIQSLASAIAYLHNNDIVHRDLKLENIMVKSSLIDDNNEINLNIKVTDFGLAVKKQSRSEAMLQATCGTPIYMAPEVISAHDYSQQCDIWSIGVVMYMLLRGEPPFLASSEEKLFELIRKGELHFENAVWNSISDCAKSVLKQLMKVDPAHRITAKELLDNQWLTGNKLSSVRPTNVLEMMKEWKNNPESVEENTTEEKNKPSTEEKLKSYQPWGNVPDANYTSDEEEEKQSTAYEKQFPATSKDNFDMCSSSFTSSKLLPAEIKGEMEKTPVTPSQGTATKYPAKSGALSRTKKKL

N#CC1(c2ccccn2)CCN(Cc2cc(C(=O)N3CCCC3)c(=O)n3ccccc23)CC1
inactive: residual activity [1] 64% | residual activity [2] 77% | residual activity [3] 99% | inhibition [4] 21.8% | residual activity [5] 100% | residual activity [6] 100% | inhibition [7] 18.6% | residual activity [8] 89% | residual activity [9] 87% | inhibition [10] -2.49% | residual activity [11] 62% | residual activity [12] 100% | residual activity [13] 100% | residual activity [14] 87% | residual activity [15] 100% | residual activity [16] 96% | residual activity [17] 67% | residual activity [18] 100% | residual activity [19] 82% | residual activity [20] 100% | residual activity [21] 96% | residual activity [22] 100% | residual activity [23] 99% | residual activity [24] 100% | residual activity [25] 100% | residual activity [26] 88% | residual activity [27] 100% | residual activity [28] 90% | residual activity [29] 67% | residual activity [30] 91% | residual activity [31] 100% | residual activity [32] 80% | residual activity [33] 100% | residual activity [34] 99% | residual activity [35] 100% | residual activity [36] 100% | residual activity [37] 100%

N#CC1(c2ccccn2)CCN(Cc2cc(C(=O)O)c(=O)n3ccccc23)CC1 [MSD-M1PAM]
inactive: residual activity [1] 100% | residual activity [2] 100% | residual activity [3] 99% | inhibition [4] 8.92% | residual activity [5] 85% | residual activity [6] 86% | inhibition [7] -7.27% | residual activity [8] 100% | residual activity [9] 90% | inhibition [10] 10.5% | residual activity [11] 56% | residual activity [12] 100% | residual activity [13] 97% | residual activity [14] 65% | residual activity [15] 86% | residual activity [16] 93% | residual activity [17] 100% | residual activity [18] 100% | residual activity [19] 95% | residual activity [20] 93% | residual activity [21] 85% | residual activity [22] 100% | residual activity [23] 100% | residual activity [24] 100% | residual activity [25] 100% | residual activity [26] 100% | residual activity [27] 87% | residual activity [28] 92% | residual activity [29] 95% | residual activity [30] 76% | residual activity [31] 83% | residual activity [32] 75% | residual activity [33] 100% | residual activity [34] 98% | residual activity [35] 100% | residual activity [36] 88% | residual activity [37] 100%
